Results taken from US8044098B2, “Use of hydroxybenzoic acids and their esters and analogues for preventing or treating virus infection” (Shenghua Guangzhou Pharmaceutical Science & Technology Co., …, priority 2005, dated 2011).

Columns and labels:
cervical erosion = assay: Clinical use of propyl gallate in treating cervical erosion; type: in vivo, human; settings: for total effectiveness rate: recovered or improved
Experimental: 4 g propyl gallate was mixed with 40 ml 1,2-propylene glycol and heated to let the ingredients to dissolve. Sterile distilled water was added to the mixture to reach a final volume of 100 ml. 28 married female patients of 22-50 years old were selected for the test. […] The patients were also tested for the absence of vaginal yeast infection or trichomoniasis or sexually transmitted diseases. The patients were randomly divided into two groups of 14 patients each. One group was treated with propyl gallate micro emulsion, the other group with interferon-α suppository (made by Wuhan Tian'ao Pharmaceutical Co.). The treatment was started three days after a patient's last menstrual period. The propyl gallate micro emulsion was applied to the mucosa surfaces with cervical erosion every other day for 30 days. Out of the group treated with propyl gallate, 7 patients had the medicine applied to them by medical professionals at a hospital, the other 7 patients applied the medicine by themselves at home. On the other hand, an interferon-α suppository was used by each patient in the control group once a day before sleep for 30 days. “Recovered”: the cervical skin became smooth, cervical erosion had disappeared; […] The effectiveness of treatment was calculated based on the number of patients that were “recovered” or “improved”. Among patients of the propyl gallate group who were treated at the hospital, the “recovered” rate was about 81%, the “improved” rate was about 15%, and the total effectiveness rate was about 96%. Among patients of the propyl gallate group who were treated at home, the “recovered” rate was about 32%, the “improved” rate was about 55%, and the total effectiveness rate was about 87%. Among patients treated with interferon-α suppository, the “recovered” rate was about 22%, the “improved” rate was about 57%, and the total effectiveness rate was about 79%.

condyloma acuminata = assay: Clinical use in treating condyloma acuminata; type: in vivo, human
From the text: Soft hyperplasia with nipple or cauliflower shaped or other shaped warts were found around the skin of the cunnus or anus. The result from 5% acetate acid white test was positive.
Patients selected for the clinical observation must meet the above standards. Plus the diameter of their skin lesions should equal to or be less than 1 cm. […] Patients who had vaginal yeast, trichomonas, bacteria infection or other complications, chronic diseases, serious liver or kidney diseases or women in pregnancy or lactation were not selected. Treatments to women would not be conducted in their menstrual periods.
50 qualified patients were selected and randomly divided into five groups to be tested with p-hydroxybenzoic acid, gallic acid, ethyl p-hydroxybenzoate, propyl gallate and recombinant human interferon α-2β gel, respectively. The samples of p-hydroxybenzoic acid, gallic acid, ethyl p-hydroxybenzoate and propyl gallate were prepared as described in Example 1. The patients were treated with the test sample to the affected areas three times a day, in the morning, at noon and night. The samples were applied to cover the warts and the patients were required to leave the treated areas exposed and not to move for 20 minutes.
Observation time: 8 days. Patients not cured after 8 days would continue to use the test samples for another 12 weeks, and their prognosis was followed during the 12-week period.
Observed items: the location, shape, size and number of warts were carefully observed and recorded before the treatment.
“Recovered”: all skin lesions had disappeared;
“Obvious Effect”: more than 70% of the skin lesions had disappeared;
“Improved”: more than 30% of the skin lesions had disappeared;
“Not Effective”: less than 30% of the skin lesions had disappeared or the original skin lesions didn't change or even enlarged.

HPV 6/11 = assay: Drug screening by quantitative fluorescent PCR analysis of HPV 6/11 in condyloma acuminata homogenate; design: species or system human papillomavirus (HPV)
flat warts = assay: Clinical use in treating flat warts; type: in vivo, human
Experimental: 5 g propyl gallate was mixed with 40 ml 1,2-propylene glycol and heated to dissolve the ingredients. Then 20 ml Tween-80 and 3 ml azone were added into the mixture and mixed well. Sterile distilled water was added to the mixture to reach a final volume of 100 ml.
Clinically, flat warts were seen as slightly raised, smooth, tan or flesh colored bumps ranging in size from 1-5 mm. They typically appeared on the face, backs of hands and arms.
32 male and 28 female patients of 15-46 years old, with the average age of 23 years old, were selected for the test. These patients have had flat warts for any time from 2 weeks to 2 years. Some of the patients have tried other treatment methods for the warts. But no one had undertaken any treatment for the warts in the past 4 weeks. And no one had taken any medicine in the past 2 weeks.
The patients were randomly divided into two groups of 30 patients each. One group was treated with propyl gallate micro emulsion, the other group with 5% imiquimod cream (made by Sichuan Ming Xin Pharmaceutical Co.), which is a medicine often used for treating flat warts. The test samples were applied to the affected areas of the patient groups three times a day, in the morning, at noon and night. The treatment period was 20 days. The treatment effect was tracked for one year.
“Recovered”: all warts had disappeared or faded, the skin became flat, no new warts appeared;
“Obvious Effect”: more than 70% of the warts had disappeared, the bottom of the warts had shrunk, the top of the warts had flattened;
“Improved”: more than 30% of the warts had disappeared, the top of the warts had flattened;
“Not Effective”: less than 30% of the warts had disappeared, no change to the warts, or some new warts appeared.

HSV infection = assay: External treatment of HSV infection in clinical tests; type: in vivo, human; settings: patients with HSV infection
From the text: Twenty-two patients who were clinically diagnosed with HSV infection were randomly selected and divided into two groups. Acyclovir ointment and micro emulsion containing propyl gallate prepared as described in Example 1 were applied to the two groups, respectively, on the affected areas of the patients three times a day.

[1] = patients treated at home (7), every other day for 30 days
[2] = number of patients of 30 per group, three times a day, 20 days

CCCOC(=O)c1cc(O)c(O)c(O)c1 [Propyl gallate]
“improved” rate (cervical erosion; [1]): about 55% | “recovered” rate (cervical erosion; [1]): about 32% | total effectiveness rate (cervical erosion; patients treated at home (7)): about 87% | “recovered” rate (cervical erosion; patients treated at the hospital (7), 4% micro emulsion every other day for 30 days): about 81% | “improved” rate (cervical erosion; patients treated at the hospital (7), every other day for 30 days): about 15% | total effectiveness rate (cervical erosion; patients treated at the hospital (7)): about 96% | effectiveness compared with interferon-α suppository (cervical erosion; patients treated at the hospital, P<0.05): significantly better | treatment effect compared to recombinant human interferon α-2β gel (condyloma acuminata; condyloma acuminata patients, 10% micro emulsion): more apparent treatment effect | Recovered, 1-4 days (condyloma acuminata; number of patients (50 patients in five groups), 10% micro emulsion on affected areas three times a day, all skin lesions disappeared): 7 | Recovered, 5-8 days (condyloma acuminata; number of patients, 10% micro emulsion three times a day, all skin lesions disappeared): 1 | Obvious Effect, 1-4 days (condyloma acuminata; number of patients, more than 70% of the skin lesions disappeared): 2 | HPV 6/11 Virus (copies/ml) (HPV 6/11; 50 μl 10% micro emulsion + 50 μl HPV sample homogenate, 37° C., 24 hours, saline control 1.45 × 10^6): 0 copies/ml | HPV 6/11 detected by FQ-PCR (in words) (HPV 6/11; 24 hours after adding the test compound): no HPV 6/11 or HPV 16/18 was detected | effectiveness in treating flat warts compared with 5% imiquimod cream (flat warts; 20 days treatment): more effective | recurrence of the warts in recovered patients (flat warts; followed for a year): none had recurrence | Recovered (flat warts; number of patients of 30 per group, applied three times a day, 20 days): 22 | Improved (flat warts; [2]): 2 | Not Effective (flat warts; [2]): 1 | Obvious Effect (flat warts; [2]): 5 | Effective Rate (flat warts; patients recovered or with obvious effect, of 30 per group): 90% | effectiveness in treating HSV infection compared with acyclovir ointment (HSV infection): more effective | average time for recovery (HSV infection; applied on affected areas three times a day): 3 days
